Results: ChEMBL document CHEMBL1201862, “PubChem BioAssay data set” (2004)
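Five concentrations, 48 hours, 96-well plates. Abbreviation: GI50, concentration required for 50% inhibition of growth.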 Calls of active or inactive are those of the source. Cut-off read from the data, not from the text of the source: active = GI50 up to about 1.1 µM and inactive = higher.

Key:
Assay in all cases: DTP human tumour cell line panel, 48 h
786-0 = tested on: 786-0
A498 = tested on: A498
A549 = tested on: A549
ACHN = tested on: ACHN
BT-549 = tested on: BT-549
CAKI-1 = tested on: CAKI-1
CCRF-CEM = tested on: CCRF-CEM
DU-145 = tested on: DU-145
EKVX = tested on: EKVX
HCT-116 = tested on: HCT-116
HCT-15 = tested on: HCT-15
HL-60 = tested on: HL-60
HOP-62 = tested on: HOP-62
HOP-92 = tested on: HOP-92
HT-29 = tested on: HT-29
Hs-578T = tested on: Hs-578T
IGROV-1 = tested on: IGROV-1
K562 = tested on: K562
KM12 = tested on: KM12
LOX IMVI = tested on: LOX IMVI
M14 = tested on: M14
MDA-MB-231 = tested on: MDA-MB-231
MDA-MB-435 = tested on: MDA-MB-435
MDA-N = tested on: MDA-N
MOLT-4 = tested on: MOLT-4
Malme-3M = tested on: Malme-3M
NCI-H226 = tested on: NCI-H226
NCI-H23 = tested on: NCI-H23
NCI-H460 = tested on: NCI-H460
NCI-H522 = tested on: NCI-H522
NCI/ADR-RES = tested on: NCI/ADR-RES
OVCAR-3 = tested on: OVCAR-3
OVCAR-4 = tested on: OVCAR-4
OVCAR-5 = tested on: OVCAR-5
OVCAR-8 = tested on: OVCAR-8
PC-3 = tested on: PC-3
RXF 393 = tested on: RXF 393
SF-268 = tested on: SF-268
SF-295 = tested on: SF-295
SK-MEL-28 = tested on: SK-MEL-28
SK-MEL-2 = tested on: SK-MEL-2
SK-MEL-5 = tested on: SK-MEL-5
SN12C = tested on: SN12C
SNB-19 = tested on: SNB-19
SR = tested on: SR
SW-620 = tested on: SW-620
T47D = tested on: T47D
TK-10 = tested on: TK-10
U-251 = tested on: U-251
UACC-257 = tested on: UACC-257
UACC-62 = tested on: UACC-62
UO-31 = tested on: UO-31
COLO 205 = tested on: COLO 205
HCC 2998 = tested on: HCC 2998
RPMI-8226 = tested on: RPMI-8226
SK-OV-3 = tested on: SK-OV-3
SNB-75 = tested on: SNB-75

In the case of `CC(CC(N)C(=O)O)C(=O)O` (stereo not drawn), the GI50 (786-0) was > 100 µM (inactive), the GI50 (A498) was > 100 µM (inactive) and the GI50 (A549) was > 100 µM (inactive). For the same compound, the GI50 (ACHN) was > 100 µM (inactive), the GI50 (BT-549) was > 100 µM (inactive) and the GI50 (CAKI-1) was > 100 µM (inactive). For the same compound, the GI50 (CCRF-CEM) was > 100 µM (inactive), the GI50 (DU-145) was > 100 µM (inactive) and the GI50 (EKVX) was > 100 µM (inactive). The GI50 (HCT-116) was > 100 µM (inactive), the GI50 (HCT-15) was over 100 µM and the GI50 (HL-60) was > 100 µM (inactive). For the same compound, the GI50 (HOP-62) was > 100 µM (inactive), the GI50 (HOP-92) was > 100 µM (inactive) and the GI50 (HT-29) was > 100 µM (inactive). For the same compound, the GI50 (Hs-578T) was > 100 µM (inactive), the GI50 (IGROV-1) was > 100 µM (inactive) and the GI50 (K562) was > 100 µM (inactive). For the same compound, the GI50 (KM12) was > 100 µM (inactive), the GI50 (LOX IMVI) was > 100 µM (inactive) and the GI50 (M14) was > 100 µM (inactive). For the same compound, the GI50 (MDA-MB-231) was > 100 µM (inactive), the GI50 (MDA-MB-435) was > 100 µM (inactive) and the GI50 (MDA-N) was > 100 µM (inactive). The GI50 (MOLT-4) was > 100 µM (inactive), the GI50 (Malme-3M) was > 100 µM (inactive) and the GI50 (NCI-H226) was > 100 µM (inactive). For the same compound, the GI50 (NCI-H23) was > 100 µM (inactive), the GI50 (NCI-H460) was > 100 µM (inactive) and the GI50 (NCI-H522) was > 100 µM (inactive). For the same compound, the GI50 (NCI/ADR-RES) was > 100 µM (inactive), the GI50 (OVCAR-3) was > 100 µM (inactive) and the GI50 (OVCAR-4) was > 100 µM (inactive). The GI50 (OVCAR-5) was > 100 µM (inactive), the GI50 (OVCAR-8) was > 100 µM (inactive) and the GI50 (PC-3) was > 100 µM (inactive). For the same compound, the GI50 (RXF 393) was > 100 µM (inactive), the GI50 (SF-268) was > 100 µM (inactive) and the GI50 (SF-295) was > 100 µM (inactive). The GI50 (SK-MEL-28) was > 100 µM (inactive), the GI50 (SK-MEL-2) was > 100 µM (inactive) and the GI50 (SK-MEL-5) was > 100 µM (inactive). For the same compound, the GI50 (SN12C) was > 100 µM (inactive), the GI50 (SNB-19) was > 100 µM (inactive) and the GI50 (SR) was > 100 µM (inactive). The GI50 (SW-620) was > 100 µM (inactive), the GI50 (T47D) was > 100 µM (inactive) and the GI50 (TK-10) was > 100 µM (inactive). The GI50 (U-251) was > 100 µM (inactive), the GI50 (UACC-257) was > 100 µM (inactive) and the GI50 (UACC-62) was > 100 µM (inactive). For the same compound, the GI50 (UO-31) was > 100 µM (inactive).

For `CNS(=O)(=O)c1ccc2c(c1)/C(=C1/Nc3ccccc3C1=O)C(=O)N2`, the GI50 (A498) was > 100 µM (inactive), the GI50 (A549) was > 100 µM (inactive) and the GI50 (ACHN) was > 100 µM (inactive). For the same compound, the GI50 (BT-549) was 66.4 µM (inactive), the GI50 (CAKI-1) was > 100 µM (inactive) and the GI50 (CCRF-CEM) was 30.8 µM (inactive). The GI50 (COLO 205) was > 100 µM (inactive), the GI50 (DU-145) was > 100 µM (inactive) and the GI50 (EKVX) was > 100 µM (inactive). The GI50 (HCC 2998) was > 100 µM (inactive), the GI50 (HCT-116) was > 100 µM (inactive) and the GI50 (HCT-15) was 49.4 µM. For the same compound, the GI50 (HL-60) was 14.6 µM (inactive), the GI50 (HOP-62) was > 100 µM (inactive) and the GI50 (HT-29) was > 100 µM (inactive). The GI50 (Hs-578T) was 3.41 µM (inactive), the GI50 (IGROV-1) was 18.7 µM (inactive) and the GI50 (K562) was > 100 µM (inactive). For the same compound, the GI50 (LOX IMVI) was > 100 µM (inactive), the GI50 (M14) was > 100 µM (inactive) and the GI50 (MDA-MB-231) was 2.63 µM (inactive). For the same compound, the GI50 (MDA-MB-435) was > 100 µM (inactive), the GI50 (MDA-N) was > 100 µM (inactive) and the GI50 (MOLT-4) was 39.6 µM (inactive). For the same compound, the GI50 (Malme-3M) was > 100 µM (inactive), the GI50 (NCI-H226) was > 100 µM (inactive) and the GI50 (NCI-H23) was 9.4 µM (inactive). The GI50 (NCI-H460) was > 100 µM (inactive), the GI50 (NCI-H522) was > 100 µM (inactive) and the GI50 (NCI/ADR-RES) was 67.8 µM (inactive). For the same compound, the GI50 (OVCAR-3) was > 100 µM (inactive), the GI50 (OVCAR-5) was > 100 µM (inactive) and the GI50 (PC-3) was > 100 µM (inactive). For the same compound, the GI50 (RPMI-8226) was > 100 µM (inactive), the GI50 (RXF 393) was > 100 µM (inactive) and the GI50 (SF-268) was > 100 µM (inactive). For the same compound, the GI50 (SF-295) was > 100 µM (inactive), the GI50 (SK-MEL-28) was > 100 µM (inactive) and the GI50 (SK-MEL-2) was > 100 µM (inactive). For the same compound, the GI50 (SK-MEL-5) was 5.2 µM (inactive), the GI50 (SK-OV-3) was 92.9 µM (inactive) and the GI50 (SN12C) was > 100 µM (inactive). For the same compound, the GI50 (SNB-19) was 20.9 µM (inactive), the GI50 (SNB-75) was > 100 µM (inactive) and the GI50 (SW-620) was > 100 µM (inactive). The GI50 (T47D) was > 100 µM (inactive), the GI50 (TK-10) was > 100 µM (inactive) and the GI50 (U-251) was 5.04 µM (inactive). The GI50 (UACC-257) was > 100 µM (inactive), the GI50 (UACC-62) was > 100 µM (inactive) and the GI50 (UO-31) was > 100 µM (inactive).
